Data published in US8895746B2 (University of Central Florida Research Foundation, Inc., priority 2009, dated 2014).
Values joined by “and” are separate entries in the source; they are usually repeats but may differ in a detail not shown here. Equal entries are not always repeated.

Columns and labels:
NIH3T3/v-Ras fibroblasts = assay: Wound healing assay for migration; type: cell-based, mouse; conditions: same treatment conditions
From the text: Wounds were made using pipette tips in monolayer cultures of cells in six-well plates. […] The migration of cells was visualized at a 10× magnification using an Axiovert 200 Inverted Fluorescence Microscope (Zeiss, Göttingen Germany), with pictures taken using a mounted Canon Powershot A640 digital camera (Canon USA, Lake Success, N.Y.). Cells that migrated into the denuded area were quantified. Mice and in vivo tumor studies-Six-week-old female athymic nude mice were purchased from Harlan and maintained in the institutional animal facilities approved by the American Association for Accreditation of Laboratory Animal Care. Athymic nude mice were injected subcutaneously in the left flank area with 5×10^6 human breast cancer MDA-MB-231 cells in 100 μL of PBS. After 5 to 10 days, tumors of a diameter of 3 mm were established. […] Tumor volume was calculated according to the formula V=0.52×a^2×b, where a, smallest superficial diameter, b, largest superficial diameter.

Stat3:EGFR immunecomplex = target: T1, Stat3:EGFR immunecomplex (Homo sapiens, UniProt P40763); assay: Direct treatment of EGFR and Stat3 immunecomplexes from Panc-1 lysates, Western blotting; type: biochemical; conditions: 0-100 M, 3 h
T1 construct: precipitated from whole-cell lysates of untreated Panc-1 cells; endogenous in cells; host or cells: Panc-1 cells (immunoprecipitates from whole-cell lysates)
T1 sequence (P40763 2-770 limits assumed, one chain of several): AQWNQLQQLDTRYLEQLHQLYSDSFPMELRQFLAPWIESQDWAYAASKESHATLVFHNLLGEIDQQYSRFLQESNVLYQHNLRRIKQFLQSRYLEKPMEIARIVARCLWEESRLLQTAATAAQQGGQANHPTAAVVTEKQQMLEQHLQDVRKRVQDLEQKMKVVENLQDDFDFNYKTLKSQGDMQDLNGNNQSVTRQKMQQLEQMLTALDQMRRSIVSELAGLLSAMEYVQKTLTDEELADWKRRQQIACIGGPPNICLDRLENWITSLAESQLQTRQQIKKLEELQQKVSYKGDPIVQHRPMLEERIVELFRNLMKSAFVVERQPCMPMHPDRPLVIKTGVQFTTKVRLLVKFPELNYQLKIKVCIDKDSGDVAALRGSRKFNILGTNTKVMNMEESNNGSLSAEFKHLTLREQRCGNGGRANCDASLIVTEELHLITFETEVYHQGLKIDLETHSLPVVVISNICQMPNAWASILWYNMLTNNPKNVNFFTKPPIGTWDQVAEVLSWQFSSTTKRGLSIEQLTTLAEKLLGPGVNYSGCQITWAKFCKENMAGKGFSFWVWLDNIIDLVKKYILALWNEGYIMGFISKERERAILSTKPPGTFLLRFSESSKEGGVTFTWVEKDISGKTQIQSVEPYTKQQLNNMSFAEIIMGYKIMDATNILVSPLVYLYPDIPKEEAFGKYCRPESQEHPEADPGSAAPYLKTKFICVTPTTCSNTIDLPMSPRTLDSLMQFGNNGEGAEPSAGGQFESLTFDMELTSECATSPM
Method: Immunoprecipitation from whole-cell lysates and SDS/PAGE and Western blotting analysis were performed as previously described (33,38).
The EGFR levels in the immunecomplexes remained unchanged (FIG. 4B(ii), upper band). […] The Stat3 levels in the immunecomplexes remained unchanged (FIG. 4B(ii), i.p. Stat3, blot Stat3).

NIH3T3/v-Ras = assay: Soft-agar colony formation assay; type: cell-based, mouse; conditions: concentrations that inhibit Stat3
Method: Colony formation assays were carried out in 6-well dishes, as described previously (16,37). Briefly, each well contained 1.5 ml of 1% agarose in Dulbeco's modified Eagle's medium as the bottom layer and 1.5 ml of 0.5% agarose in Dulbeco's modified Eagle's medium containing 4000 or 6000 NIH3T3/v-Src or NIH3T3/v-Ras fibroblasts, respectively, as the top layer. Treatment with S3I201.1066 was initiated 1 day after seeding cells by adding 80 μl of medium with or without S3I20.1.1066, and repeating every 3 days, until large colonies were evident. Colonies were quantified by staining with 20 μl of 1 mg/ml crystal violet, incubating at 37° C. overnight, and counting the next day under phase contrast microscope.

[1] = system: NIH3T3/v-Src, MDA-MB-231 and Panc-1 cells; assay: Viable cell numbers and growth (CyQuant, trypan blue exclusion), cells with aberrant Stat3; type: cell-based, mouse, human
[2] = system: NIH3T3, Stat3-null MEFs (Stat3−/−), HPDEC, TE71; assay: Viability and growth (CyQuant, trypan blue exclusion), cells without aberrant Stat3; type: cell-based, mouse, human; conditions: up to 200 μM
From the text: Aberrant Stat3 promotes malignant cell proliferation, survival and malignant transformation (10, 20, 42). Given that S3I201.1066 disrupts Stat3 activation, we asked the question whether this agent is able to selectively decrease the viability and growth of malignant cells that harbor aberrant Stat3 activity.

[3] = system: NIH3T3/v-Src, Panc-1 and MDA-MB-231 cells; assay: Colony survival assay; type: cell-based, mouse, human; conditions: treated once
Method: This was performed as previously reported (39). […] Colonies were stained with crystal violet for 4 h and counted under phase-contrast microscope.
Cultured single-cells were untreated or treated once with S3I-201.1066 and allowed to grow until large colonies were visible, which were stained and enumerated.

Stat3 SH2 domain = target: T2, Stat3 SH2 domain (Mus musculus, UniProt P42227); assay: EMSA of Stat3 DNA-binding with added purified His-tagged Stat3 SH2 domain; type: biochemical, murine; conditions: 1-500 ng His-SH2; full recovery at 125-500 ng
T2 construct: Purified histidine-tagged Stat3 SH2 domain (His-SH2) was added at increasing concentrations (1-500 ng); SUMO (vector pET SUMO); made in house; host or cells: E. coli BL21(DE3)
T2 sequence (P42227 580-670 limits assumed): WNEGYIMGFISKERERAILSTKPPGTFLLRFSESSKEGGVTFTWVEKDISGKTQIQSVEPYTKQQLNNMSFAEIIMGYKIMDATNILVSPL
From the text: (§1) Coding regions for the murine Stat3 protein and Stat3 SH2 domain were amplified by PCR and cloned into vectors pET-44 Ek/LIC (Novagen) and pET SUMO (Invitrogen), respectively.

Stat3 = Stat3 (Mus musculus, UniProt P42227); assay: Fluorescence Polarization assay, Stat3 binding to 5-carboxyfluorescein-GpYLPQTV-NH2 probe; design: Coding regions for the murine Stat3 protein; made in house; host or cells: E. coli BL21(DE3); species or system murine; conditions: IC50, disruption of Stat3 binding to pTyr peptide probe, 150 nM Stat3, 10 nM probe
Chain of Stat3 (P42227 whole entry): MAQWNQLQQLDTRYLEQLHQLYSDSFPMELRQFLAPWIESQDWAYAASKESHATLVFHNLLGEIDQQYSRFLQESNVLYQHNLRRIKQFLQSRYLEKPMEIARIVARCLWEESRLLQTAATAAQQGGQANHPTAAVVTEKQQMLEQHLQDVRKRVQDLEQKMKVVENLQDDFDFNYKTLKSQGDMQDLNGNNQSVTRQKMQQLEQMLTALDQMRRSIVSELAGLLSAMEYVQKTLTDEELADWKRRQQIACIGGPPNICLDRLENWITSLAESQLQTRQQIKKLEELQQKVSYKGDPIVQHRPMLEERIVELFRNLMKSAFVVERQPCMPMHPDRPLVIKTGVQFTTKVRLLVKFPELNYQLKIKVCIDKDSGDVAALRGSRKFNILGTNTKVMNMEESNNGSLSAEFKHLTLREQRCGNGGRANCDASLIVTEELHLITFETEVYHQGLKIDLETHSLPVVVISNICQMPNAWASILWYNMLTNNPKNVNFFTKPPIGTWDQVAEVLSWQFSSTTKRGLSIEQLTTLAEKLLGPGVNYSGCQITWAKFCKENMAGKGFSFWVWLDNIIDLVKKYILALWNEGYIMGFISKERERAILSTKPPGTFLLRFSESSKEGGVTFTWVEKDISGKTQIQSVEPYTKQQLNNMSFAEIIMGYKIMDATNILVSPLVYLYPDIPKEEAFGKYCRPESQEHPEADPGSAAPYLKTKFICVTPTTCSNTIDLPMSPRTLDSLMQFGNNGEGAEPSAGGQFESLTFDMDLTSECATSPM
Method: as §1
Fluorescence Polarization (FP) Assay was conducted as previously reported (23), with some modification using the phospho-peptide, 5-carboxyfluorescein-GpYLPQTV-NH2 (phosphorylated SEQ ID NO:7) (where pY represents phospho-Tyr) as probe and Stat3. The FP assay was used to evaluate the binding of agents to Stat3 and to determine the ability to disrupt the Stat3:pTyr peptide interaction. A fixed concentration of the fluorescently-labeled peptide probe (10 nM) was incubated with increasing concentration of the Stat3 protein for 30 min at room temperature in the buffer, 50 mM NaCI, 10 mM HEPES, 1 mM EDTA, 0.1% Nonidet P-40, and the fluorescent polarization measurements were determined using the POLARstar Omega (BMG LABTECH, Durham, N.C.), with the set gain adjustment at 35 mP. The Z′ value was derived per the equation Z′=1−(3 SDbound+3 SD free)/(mPbound−mPfree), where SD is the standard deviation and mP is the average of fluorescence polarization. In the bound state, 10 nM 5-carboxyfluorescein-GpYLPQTV-NH2 (phosphorylated SEQ ID NO:7) was incubated with 150 nM purified Stat3 protein, while the free (unbound) state was the same mixture, but incubated with an additional 10 IJM unlabeled Ac-GpYLPQTV-NH2 (phosphorylated SEQ ID NO:7). For evaluating agents, Stat3 protein (150 nM) was incubated with serial concentrations of S31-201.1066 at 30° C. for 60 min in the indicated assay buffer conditions. Prior to the addition of the fluorescence probe, the protein:S31-201.1066 mixtures were allowed to equilibrate at room temperature for 15 min. Probe was added at a final concentration of 10 nM and incubated for 30 min at room temperature following which the FP measurements were taken using the POLARstar Omega, with the set gain adjustment at 35 mP.
The FP assay was used to further test the computational modeling prediction of the ability of S31-201.1066 to disrupt Stat3 interaction with its cognate pTyr peptide.

[4] = increasing concentrations, 24-144 h

SMILES: Cc1ccc(S(=O)(=O)N(C)CC(=O)N(Cc2ccc(C3CCCCC3)cc2)c2ccc(C(=O)O)c(O)c2)cc1 [S3I-201.1066]
- migration (NIH3T3/v-Ras fibroblasts): minimally affected
- EGFR levels in directly treated Stat3 immunecomplex (Stat3:EGFR immunecomplex): strongly reduced EGFR levels
- level of Stat3 present in directly treated EGFR immunecomplex (Stat3:EGFR immunecomplex): dramatically diminished
- levels of Shc or Grb 2 in directly treated EGFR immunecomplex (Stat3:EGFR immunecomplex): no visible changes
- soft-agar growth (NIH3T3/v-Ras): minimal effect
- concentrations at which antitumor cell effects occurred [1]: 30 to 50 µM
- growth (trypan blue exclusion) [1, 4]: growth inhibited
- viable cell numbers [1, 4]: significantly reduced viable cell numbers
- viability and growth [2]: not significantly altered
- number of colonies, colony survival [3]: dose-dependent suppression
- inhibition of Stat3 DNA-binding activity in presence of increasing purified His-SH2 domain (Stat3 SH2 domain): progressively eliminated
- IC50 (Stat3): 45 µM and 23 µM and 20 µM
